Data: ChEMBL document CHEMBL1938296, “Steroidal C-21 heteroaryl thioethers (Part 2): discovery of orally bioavailable selective glucocorticoid receptor modulators (dissociated steroids)” (Bioorg Med Chem Lett, 2012)

Experiments:
[1] = tested on: Rattus norvegicus; experiment: Antiinflammatory activity against Brown Norway rat allergic lung inflammation model assessed as total cell inhibition at 10 mg/kg, po for 3 days; format: functional; set-up: scale not given: the % may be the effect or the level left
[2] = tested on: Rattus norvegicus; experiment: Toxicity in Brown Norway rat allergic lung inflammation model assessed as decrease in thymus weight at 10 mg/kg, po for 3 days; format: organism-based; set-up: dose 10 mg/kg, route oral; scale not given: the % may be the effect or the level left; conditions: in vivo, 72 h
[3] = target: T1, Glucocorticoid receptor (Homo sapiens, UniProt P04150); experiment: Transrepression activity at glucocorticoid receptor in human H292 cells assessed as inhibition of TNF-stimulated IL-8 production; format: cell-based
T1 sequence (P04150 whole entry): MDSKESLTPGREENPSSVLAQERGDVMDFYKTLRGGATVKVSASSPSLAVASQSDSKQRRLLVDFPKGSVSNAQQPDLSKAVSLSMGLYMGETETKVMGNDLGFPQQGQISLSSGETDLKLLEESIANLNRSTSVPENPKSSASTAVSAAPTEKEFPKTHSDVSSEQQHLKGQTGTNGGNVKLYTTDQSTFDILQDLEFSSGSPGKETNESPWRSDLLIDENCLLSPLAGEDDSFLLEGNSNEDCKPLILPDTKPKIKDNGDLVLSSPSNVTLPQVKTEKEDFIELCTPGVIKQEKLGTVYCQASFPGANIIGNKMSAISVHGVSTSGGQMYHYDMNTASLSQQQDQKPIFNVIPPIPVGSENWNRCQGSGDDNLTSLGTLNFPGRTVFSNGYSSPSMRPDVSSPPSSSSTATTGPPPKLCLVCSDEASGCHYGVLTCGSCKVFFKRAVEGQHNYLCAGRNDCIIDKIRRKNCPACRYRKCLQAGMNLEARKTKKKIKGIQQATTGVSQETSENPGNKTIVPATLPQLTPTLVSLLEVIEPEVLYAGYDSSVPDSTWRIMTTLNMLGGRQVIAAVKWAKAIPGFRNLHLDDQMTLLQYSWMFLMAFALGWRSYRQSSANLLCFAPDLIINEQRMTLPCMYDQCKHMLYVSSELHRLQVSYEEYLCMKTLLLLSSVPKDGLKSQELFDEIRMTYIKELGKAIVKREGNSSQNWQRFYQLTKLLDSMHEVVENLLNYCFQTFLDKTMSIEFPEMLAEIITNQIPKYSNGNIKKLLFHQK

[4] = target: T2, Glucocorticoid receptor (Rattus norvegicus, UniProt P06536); experiment: Transactivation of glucocorticoid receptor in rat H42E cells assessed as induction of TAT measuring degradation of tyrosine to p-hydroxy phenyl pyruvate; format: cell-based; conditions: read-out: IC50 (the source's name)
T2 sequence (P06536 whole entry): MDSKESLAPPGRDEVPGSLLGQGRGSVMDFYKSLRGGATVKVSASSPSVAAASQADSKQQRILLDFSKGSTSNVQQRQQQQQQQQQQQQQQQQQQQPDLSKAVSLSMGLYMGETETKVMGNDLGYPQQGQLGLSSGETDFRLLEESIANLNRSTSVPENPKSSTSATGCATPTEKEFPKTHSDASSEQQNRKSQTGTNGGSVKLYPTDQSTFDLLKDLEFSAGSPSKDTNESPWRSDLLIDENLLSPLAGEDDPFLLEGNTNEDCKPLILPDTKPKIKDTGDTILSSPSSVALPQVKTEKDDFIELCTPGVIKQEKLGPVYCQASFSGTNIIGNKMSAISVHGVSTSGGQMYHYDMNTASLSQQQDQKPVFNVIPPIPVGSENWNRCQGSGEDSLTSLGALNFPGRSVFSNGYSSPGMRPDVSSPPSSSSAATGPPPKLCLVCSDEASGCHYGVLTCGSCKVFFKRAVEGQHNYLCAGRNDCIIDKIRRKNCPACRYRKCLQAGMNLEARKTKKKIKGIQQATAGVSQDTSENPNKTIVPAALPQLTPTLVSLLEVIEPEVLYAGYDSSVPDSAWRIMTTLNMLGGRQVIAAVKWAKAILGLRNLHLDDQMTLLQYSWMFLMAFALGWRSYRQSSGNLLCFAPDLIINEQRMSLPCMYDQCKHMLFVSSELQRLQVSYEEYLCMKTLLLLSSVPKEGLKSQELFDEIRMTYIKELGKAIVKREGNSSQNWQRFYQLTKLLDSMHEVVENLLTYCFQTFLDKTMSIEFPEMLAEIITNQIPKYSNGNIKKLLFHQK

[5] = target: T1, Glucocorticoid receptor; experiment: Transactivation of glucocorticoid receptor in human HepG2 cells assessed as induction of TAT measuring degradation of tyrosine to p-hydroxy phenyl pyruvate at 1 uM relative to untreated control; format: cell-based; conditions: hepg2, 1 µM
[6] = AUC in Brown Norway rat at 10 mg/kg, po; format: ADME, organism-based; set-up: dose 10 mg/kg, route oral; conditions: plasma
[7] = target: T2, Glucocorticoid receptor; experiment: Transactivation of glucocorticoid receptor in rat H42E cells assessed as induction of TAT measuring degradation of tyrosine to p-hydroxy phenyl pyruvate at 1 uM relative to prednisolone; format: cell-based; conditions: read-out: Efficacy
[8] = target: T1, Glucocorticoid receptor; experiment: Transactivation of glucocorticoid receptor in human HepG2 cells assessed as induction of TAT measuring degradation of tyrosine to p-hydroxy phenyl pyruvate; format: cell-based; conditions: read-out: IC50 (the source's name)

| SMILES | Activity [1] [%] | Activity [2] [%] | IC50 [3] [nM] | EC50 [4] [nM] | Efficacy [5] [%] | AUC [6] [ng·h/mL] | Emax at 1 µM [7] [%] | EC50 [8] [nM] |
| --- | --- | --- | --- | --- | --- | --- | --- | --- |
| C[C@@H]1C[C@H]2[C@@H]3CCC4=CC(=O)C=C[C@]4(C)[C@H]3[C@@H](O)C[C@]2(C)[C@@]1(O)C(=O)CSc1ccc2ccccc2n1 | 73 | 66 | 46.5 | 19.2 | 19 | 5280 | 45 | – |
| C[C@@H]1C[C@H]2[C@@H]3CCC4=CC(=O)C=C[C@]4(C)[C@H]3[C@@H](O)C[C@]2(C)[C@@]1(O)C(=O)CSc1nccc2ccccc12 | – | – | 17.6 | – | 8 | – | 6 | – |
| C[C@]12C=CC(=O)C=C1CC[C@@H]1[C@@H]2[C@@H](O)C[C@@]2(C)[C@H]1CC[C@]2(O)C(=O)CSc1ccccn1 | – | – | 43.8 | 707 | 22 | – | 23 | 238 |
| C[C@@H]1C[C@H]2[C@@H]3CCC4=CC(=O)C=C[C@]4(C)[C@H]3[C@@H](O)C[C@]2(C)[C@@]1(O)C(=O)CSc1nc2ncccc2o1 | – | – | 6 | 135 | 32 | – | 37 | – |
| C[C@]12C=CC(=O)C=C1CC[C@@H]1[C@@H]2[C@@H](O)C[C@@]2(C)[C@H]1CC[C@]2(O)C(=O)CSc1nc(-c2ccccc2)cs1 | – | – | 305 | – | 42 | – | 9 | – |
| C[C@]12C=CC(=O)C=C1CC[C@@H]1[C@@H]2[C@@H](O)C[C@@]2(C)[C@H]1CC[C@]2(O)C(=O)CSc1nc2cccnc2s1 | – | – | 118 | – | 6 | – | 7 | – |
| C[C@]12C=CC(=O)C=C1CC[C@@H]1[C@@H]2[C@@H](O)C[C@@]2(C)[C@H]1CC[C@]2(O)C(=O)CSc1nc2ncccc2o1 | 56 | 9 | 17.2 | – | 21 | 2940 | 29 | – |
| C[C@]12C=CC(=O)C=C1CC[C@@H]1[C@@H]2[C@@H](O)C[C@@]2(C)[C@H]1CC[C@]2(O)C(=O)CSc1nc2ncccc2[nH]1 | – | – | 57.2 | – | 7 | – | 2 | – |
| C[C@@H]1C[C@H]2[C@@H]3CCC4=CC(=O)C=C[C@]4(C)[C@H]3[C@@H](O)C[C@]2(C)[C@@]1(O)C(=O)CO | – | – | 1.6 | – | 125 | – | – | 15.7 |
| C[C@@H]1C[C@H]2[C@@H]3CCC4=CC(=O)C=C[C@]4(C)[C@H]3[C@@H](O)C[C@]2(C)[C@@]1(O)C(=O)CSc1cnc2ccccc2n1 | 85 | 65 | 37.9 | – | 54 | 1950 | 3 | – |
| Cc1ccnc(SCC(=O)[C@@]2(O)CC[C@H]3[C@@H]4CCC5=CC(=O)C=C[C@]5(C)[C@H]4[C@@H](O)C[C@@]32C)n1 | – | – | 11.4 | – | 6 | – | 6 | – |
| CCn1c(SCC(=O)[C@@]2(O)CC[C@H]3[C@@H]4CCC5=CC(=O)C=C[C@]5(C)[C@H]4[C@@H](O)C[C@@]32C)nc2ccccc21 | – | – | 41.3 | – | 9 | – | 10 | – |
| Cc1cccc(SCC(=O)[C@@]2(O)[C@H](C)C[C@H]3[C@@H]4CCC5=CC(=O)C=C[C@]5(C)[C@H]4[C@@H](O)C[C@@]32C)n1 | – | – | 1.69 | – | 33 | – | 29 | – |
| C[C@@H]1C[C@H]2[C@@H]3CCC4=CC(=O)C=C[C@]4(C)[C@H]3[C@@H](O)C[C@]2(C)[C@@]1(O)C(=O)CSc1nc2ccccc2[nH]1 | – | – | 36 | – | 30 | – | 3 | – |
| C[C@@H]1C[C@H]2[C@@H]3CCC4=CC(=O)C=C[C@]4(C)[C@H]3[C@@H](O)C[C@]2(C)[C@@]1(O)C(=O)CSc1nc2ccccc2n1C | – | – | 69.3 | – | 13 | – | 2 | – |
| C[C@]12C=CC(=O)C=C1CC[C@@H]1[C@@H]2[C@@H](O)C[C@@]2(C)[C@H]1CC[C@]2(O)C(=O)CSc1nc2ccccc2o1 | – | – | 13.5 | – | 22 | 26 | 32 | – |
| C[C@@H]1C[C@H]2[C@@H]3CCC4=CC(=O)C=C[C@]4(C)[C@H]3[C@@H](O)C[C@]2(C)[C@@]1(O)C(=O)CSc1nc2ccccc2o1 | – | – | 4.4 | – | – | – | – | – |
| C[C@@H]1C[C@H]2[C@@H]3CCC4=CC(=O)C=C[C@]4(C)[C@H]3[C@@H](O)C[C@]2(C)[C@@]1(O)C(=O)CSc1ncnc2ccccc12 | – | – | 23.5 | – | 30 | – | 8 | – |
| C[C@@H]1C[C@H]2[C@@H]3CCC4=CC(=O)C=C[C@]4(C)[C@H]3[C@@H](O)C[C@]2(C)[C@@]1(O)C(=O)CSc1nnc(-c2ccccc2)o1 | – | – | 5.1 | 740 | 57 | – | 65 | 80.3 |
| C[C@]12C=CC(=O)C=C1CC[C@@H]1[C@@H]2[C@@H](O)C[C@@]2(C)[C@H]1CC[C@]2(O)C(=O)CSc1nc2ccccc2s1 | 45 | 15 | – | – | – | 1220 | 19 | – |
| C[C@@H]1C[C@H]2[C@@H]3CCC4=CC(=O)C=C[C@]4(C)[C@H]3[C@@H](O)C[C@]2(C)[C@@]1(O)C(=O)CSc1nc2ccccc2s1 | – | – | 5.8 | 230 | 62 | – | 35 | 1000 |
| C[C@]12C=CC(=O)C=C1CC[C@@H]1[C@@H]2[C@@H](O)C[C@@]2(C)[C@H]1CC[C@]2(O)C(=O)CSc1ncc2ccccc2n1 | 46 | 11 | 68.7 | – | 10 | 606 | 2 | – |
